Paper PMC6496074, “The Evolution of Azole Resistance in Candida albicans Sterol 14α-Demethylase (CYP51) through Incremental Amino Acid Substitutions” (Antimicrobial Agents and Chemotherapy, 2019)
Converted amounts (≈) assume the structure as drawn. “And” between values parts separate entries of the source, which are not always exact repeats. Equal values may be shown once.

Key:
[1] = molecular target: T1, CaCYP51 F145L (Candida albicans, UniProt P10613, F145L); assay: CYP51 reconstitution assay; type: biochemical; conditions: for remaining activity at 4 µM: 0.25 h, 4 μM triazole, % of activity without triazole, read-out: Residual CYP51 activity (%) ± SD; for IC50: mean ± SD, duplicate
T1 construct: made in house; host or cells: E. coli DH5α (pCWori+)
T1 sequence (P10613 whole entry, looked up, stated change not applied): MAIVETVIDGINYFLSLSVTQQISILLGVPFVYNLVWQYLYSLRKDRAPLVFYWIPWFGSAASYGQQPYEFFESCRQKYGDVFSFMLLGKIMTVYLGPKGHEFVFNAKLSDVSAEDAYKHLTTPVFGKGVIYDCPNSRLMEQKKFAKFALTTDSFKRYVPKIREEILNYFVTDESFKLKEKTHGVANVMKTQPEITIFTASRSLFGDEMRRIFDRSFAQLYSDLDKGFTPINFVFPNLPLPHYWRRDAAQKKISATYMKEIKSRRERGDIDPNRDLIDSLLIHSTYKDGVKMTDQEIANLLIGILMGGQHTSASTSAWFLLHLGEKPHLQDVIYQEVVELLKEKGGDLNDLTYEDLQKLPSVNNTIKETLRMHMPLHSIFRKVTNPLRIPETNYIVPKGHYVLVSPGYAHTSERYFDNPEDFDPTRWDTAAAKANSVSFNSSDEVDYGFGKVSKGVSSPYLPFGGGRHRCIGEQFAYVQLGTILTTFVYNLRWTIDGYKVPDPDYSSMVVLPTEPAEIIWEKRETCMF
Experimental: (§1) Azole antifungal agents were added in 2.5 μl dimethyl sulfoxide, followed by 10 min of incubation at 37°C prior to assay initiation with 4 mM β-NADPH-Na4. The samples were then shaken for 15 min at 37°C. Sterol metabolites were recovered by extraction with ethyl acetate, followed by derivatization with 0.1 ml N,O-bis(trimethylsilyl)trifluoroacetamide (BSTFA)–trimethylchlorosilane (TMCS) (99:1) and 0.3 ml anhydrous pyridine (2 h at 80°C), prior to analysis by gas chromatography-mass spectrometry (GC-MS) ([52]). IC50 determinations were performed in duplicate.

[2] = molecular target: T2, CaCYP51 G307S (Candida albicans, UniProt P10613, G307S); assay: CYP51 reconstitution assay; type: biochemical; conditions: for remaining activity at 4 µM: 0.25 h, 4 μM triazole, % of activity without triazole, read-out: Residual CYP51 activity (%) ± SD; for IC50: mean ± SD, duplicate
T2 construct: made in house; host or cells: E. coli DH5α (pCWori+)
Experimental: as §1

[3] = molecular target: T3, CaCYP51 G307S+G450E (Candida albicans, UniProt P10613, G307S/G450E); assay: CYP51 reconstitution assay; type: biochemical; conditions: for remaining activity at 4 µM: 0.25 h, 4 μM triazole, % of activity without triazole, read-out: Residual CYP51 activity (%) ± SD; for IC50: mean ± SD, duplicate
T3 construct: made in house; host or cells: E. coli DH5α (pCWori+)
Experimental: as §1

[4] = molecular target: T4, CaCYP51 K143R (Candida albicans, UniProt P10613, K143R); assay: CYP51 reconstitution assay; type: biochemical; conditions: for IC50: mean ± SD, duplicate
T4 construct: made in house; host or cells: E. coli DH5α (pCWori+)
Experimental: as §1

[5] = molecular target: T5, CaCYP51 P230L (Candida albicans, UniProt P10613, P230L); assay: CYP51 reconstitution assay; type: biochemical; conditions: for remaining activity at 4 µM: 0.25 h, 4 μM triazole, % of activity without triazole, read-out: Residual CYP51 activity (%) ± SD; for IC50: mean ± SD, duplicate
T5 construct: made in house; host or cells: E. coli DH5α (pCWori+)
T5 sequence (P10613 whole entry, looked up, stated change not applied): as above
Experimental: as §1

[6] = molecular target: T6, CaCYP51 Q474K (Candida albicans, UniProt P10613, Q474K); assay: CYP51 reconstitution assay; type: biochemical; conditions: for remaining activity at 4 µM: 0.25 h, 4 μM triazole, % of activity without triazole, read-out: Residual CYP51 activity (%) ± SD; for IC50: mean ± SD, duplicate
T6 construct: made in house; host or cells: E. coli DH5α (pCWori+)
T6 sequence (P10613 whole entry, looked up, stated change not applied): as above
Experimental: as §1

[7] = molecular target: T7, CaCYP51 S279F (Candida albicans, UniProt P10613, S279F); assay: CYP51 reconstitution assay; type: biochemical; conditions: for remaining activity at 4 µM: 0.25 h, 4 μM triazole, % of activity without triazole, read-out: Residual CYP51 activity (%) ± SD; for IC50: mean ± SD, duplicate
T7 construct: made in house; host or cells: E. coli DH5α (pCWori+)
T7 sequence (P10613 whole entry, looked up, stated change not applied): as above
Experimental: as §1

[8] = molecular target: T8, CaCYP51 V456I (Candida albicans, UniProt P10613, V456I); assay: CYP51 reconstitution assay; type: biochemical; conditions: for remaining activity at 4 µM: 0.25 h, 4 μM triazole, % of activity without triazole, read-out: Residual CYP51 activity (%) ± SD; for IC50: mean ± SD, duplicate
T8 construct: made in house; host or cells: E. coli DH5α (pCWori+)
T8 sequence (P10613 whole entry, looked up, stated change not applied): as above
Experimental: as §1

[9] = molecular target: T9, CaCYP51 V488I (Candida albicans, UniProt P10613, V488I); assay: CYP51 reconstitution assay; type: biochemical; conditions: for IC50: mean ± SD, duplicate
T9 construct: made in house; host or cells: E. coli DH5α (pCWori+)
T9 sequence (P10613 whole entry, looked up, stated change not applied): as above
Experimental: as §1

[10] = molecular target: T10, CaCYP51 Y118A (Candida albicans, UniProt P10613, Y118A); assay: CYP51 reconstitution assay; type: biochemical; conditions: for IC50: mean ± SD, duplicate
T10 construct: made in house; host or cells: E. coli DH5α (pCWori+)
T10 sequence (P10613 whole entry, looked up, stated change not applied): as above
Experimental: as §1

[11] = molecular target: T11, CaCYP51 Y132H (Candida albicans, UniProt P10613, Y132H); assay: CYP51 reconstitution assay; type: biochemical; conditions: for IC50: mean ± SD, duplicate
T11 construct: made in house; host or cells: E. coli DH5α (pCWori+)
T11 sequence (P10613 whole entry, looked up, stated change not applied): as above
Experimental: as §1

[12] = molecular target: T12, CaCYP51 Y132H+K143R (Candida albicans, UniProt P10613, K143R/Y132H); assay: CYP51 reconstitution assay; type: biochemical; conditions: for remaining activity at 4 µM: 0.25 h, 4 μM triazole, % of activity without triazole, read-out: Residual CYP51 activity (%) ± SD; for IC50: mean ± SD, duplicate
T12 construct: made in house; host or cells: E. coli DH5α (pCWori+)
T12 sequence (P10613 whole entry, looked up, stated change not applied): as above
Experimental: as §1

[13] = tested on: C. albicans SC5314 strain with CaCYP51 substitution G450E; assay: CLSI broth microdilution MIC; type: cell-based; conditions: Candida albicans, RPMI 1640, 24 h, 35°C, 50% reduction in growth
From the text: (§2) Strains expressing seven single mutations (Y132F, K143R, F145L, S405F, G448E, G450E, G464S) and three double mutations (Y132F+K143R, Y132F+F145L, D278N+G464S) were selected from a previous study ([36]). Two additional strains expressing the Y132H and D278N CYP51 gene mutations were created utilizing the SAT1/FLP cassette described previously ([44]). […] Successful transformants were screened on yeast-peptone-dextrose agar plates containing nourseothricin and confirmed via Southern hybridization. Genomic DNA from nourseothricin-screened transformants was digested with the HindIII restriction enzyme, and the resulting DNA digests were loaded on 1% agarose gels containing ethidium bromide. Digested samples were visualized briefly under UV light after approximately 2 h of electrophoresis (120 V) to confirm appropriate band separation. Lanes containing digested DNA in the gel were transferred onto a nitrocellulose membrane via vacuum suction, and DNA was cross-linked to the membrane through UV exposure. PCR amplification of the genomic DNA from parent isolate SC5314 using primers ERG11_Probe_F (5′-[…]-3′) and ERG11_Probe_R (5′-[…]-3′) generated a 254-bp product, used as a probe for the ERG11 gene locus. The probe was labeled and prepared using an Amersham AlkPhos direct labeling and detection system (GE Life Sciences) and hybridized to the membrane through overnight incubation at 55°C. Bands containing the hybridized, alkaline phosphatase-labeled probe corresponding to either wild-type ERG11 alleles (2,678 bp) or successfully replaced alleles with the SAT1/FLP cassette included (4,318 bp) or recycled (3,119 bp) were visualized with the CDP-Star chemiluminescent detection reagent. To confirm the sequence of the replaced ERG11 allele, a DNA fragment containing the ERG11 ORF and approximately 435 bp upstream of the start codon and 229 bp downstream of the ERG11 stop codon was PCR amplified using primers CaERG11_A_(ApaI) (5′-[…]-3′) and CaERG11_E_(XhoI) (5′-[…]-3′). The resulting DNA fragment was purified and Sanger sequenced on an ABI model 3130XL genetic analyzer with the following sequencing primers: CaERG11SeqA (5′-[…]-3′), CaERG11SeqB (5′-[…]-3′), CaERG11SeqC (5′-[…]-3′), CaERG11SeqD (5′-[…]-3′), CaERG11SeqE (5′-[…]-3′), and CaERG11SeqF (5′-[…]-3′).
(§3) Azole MICs were determined using the broth microdilution method described by the Clinical Laboratory and Standards Institute ([45], [46]). […] Measurements were read visually at 24 h after incubation at 35°C for a 50% reduction in growth from that in the drug-free control wells. MIC measurements were performed in duplicate, and the MIC was reported as the higher of two values for all strains tested. In cases where the duplicate MIC values were not identical, the higher of the two MIC values is reported. […] Additionally, no MICs differed by more than 2 dilutions for a given strain and drug.

[14] = tested on: C. albicans SC5314 strain with CaCYP51 substitution Y132F+F145L; assay: CLSI broth microdilution MIC; type: cell-based; conditions: Candida albicans, RPMI 1640, 24 h, 35°C, 50% reduction in growth
From the text: as §2, §3

[15] = tested on: C. albicans SC5314 strain with CaCYP51 substitution Y132F+K143R; assay: CLSI broth microdilution MIC; type: cell-based; conditions: Candida albicans, RPMI 1640, 24 h, 35°C, 50% reduction in growth
From the text: as §2, §3

[16] = tested on: C. albicans SC5314 strain with CaCYP51 substitution Y132F; assay: CLSI broth microdilution MIC; type: cell-based; conditions: Candida albicans, RPMI 1640, 24 h, 35°C, 50% reduction in growth
From the text: as §2, §3

[17] = 0.25 h, 4 μM triazole, % of activity without triazole, read-out: Residual CYP51 activity (%) ± SD

| SMILES | remaining activity at 4 µM [1] [%] | IC50 [1] [nM] | remaining activity at 4 µM [2] [%] | IC50 [2] [nM] | remaining activity at 4 µM [3] [%] | IC50 [3] [nM] | IC50 [4] [nM] | remaining activity at 4 µM [5] [%] | IC50 [5] [nM] | remaining activity at 4 µM [6] [%] | IC50 [6] [nM] | remaining activity at 4 µM [7] [%] | IC50 [7] [nM] | remaining activity at 4 µM [8] [%] | IC50 [8] [nM] | IC50 [9] [nM] | IC50 [10] [nM] | IC50 [11] [nM] | remaining activity at 4 µM [12] [%] | IC50 [12] [nM] | further results |
| --- | --- | --- | --- | --- | --- | --- | --- | --- | --- | --- | --- | --- | --- | --- | --- | --- | --- | --- | --- | --- | --- |
| OC(Cn1cncn1)(Cn1cncn1)c1ccc(F)cc1F [Fluconazole, fluconazole] | 6.71 ± 0.15 | 450 ± 83 | 0.95 ± 0.17 | 526 ± 211 | 56.8 ± 2.3 | 4980 ± 54 | 1100 ± 313 | 0.05 ± 0.03 | 334 ± 86 | 0.71 ± 0.08 | 358 ± 8 | 18 ± 1.67 | 1050 ± 325 | 3.68 ± 0.95 | 483 ± 22 | 520 ± 57 | 194 ± 10 | 220 ± 13 | 68.8 ± 5.68 | 8470 ± 1270 | fold increase in IC50 over wild-type enzyme [3]: 13 fold; remaining activity at 4 µM [4, 17]: 28.1 ± 2.04%; remaining activity at 4 µM [9, 17]: 1.06 ± 0.04%; remaining activity at 4 µM [11, 17]: 0.86 ± 0.07%; fold increase in IC50 over wild-type enzyme [12]: 22 fold and 22.1 fold; MIC [13]: 16 µg/mL (≈ 52.2 µM); MIC [14]: 32 µg/mL (≈ 104 µM); MIC [15]: 32 µg/mL (≈ 104 µM); MIC [16]: 8 µg/mL (≈ 26.1 µM) |
| CCC(C)n1ncn(-c2ccc(N3CCN(c4ccc(OCC5COC(Cn6cncn6)(c6ccc(Cl)cc6Cl)O5)cc4)CC3)cc2)c1=O (stereo not drawn) [Itraconazole, itraconazole] | 1.99 ± 0.04 | 300 ± 13 | 0.53 ± 0.21 | 225 ± 7 | 0.2 ± 0.04 | 318 ± 17 | 450 ± 16 | 0.06 ± 0.01 | 265 ± 38 | 0.49 ± 0.04 | 246 ± 6 | 5.97 ± 0.35 | 569 ± 121 | 3.21 ± 0.07 | 603 ± 2 | 449 ± 16 | 170 ± 16 | 150 ± 28 | 0.7 ± 0.03 | 237 ± 7 | remaining activity at 4 µM [10, 17]: 1.3 ± 0.59%; MIC [13]: 0.25 µg/mL (≈ 0.354 µM); MIC [14]: 0.25 µg/mL (≈ 0.354 µM); MIC [15]: 0.25 µg/mL (≈ 0.354 µM); MIC [16]: 0.25 µg/mL (≈ 0.354 µM) |
